The source of these data is ChEMBL document CHEMBL6074659, “Development of an Intravenously Stable Disulfide-Rich Peptide for the Treatment of Chemotherapy-Induced Neuropathic Pain” (J Med Chem, 2024).

For data set [1], the target named is Neuronal acetylcholine receptor subunit alpha-7 (Homo sapiens, UniProt P36544). The experiment in a line: Inhibition of human alpha7 nAChR assessed as reduction in acetylcholine-induced current incubated for 5 mins by two electrode voltage-clamp assay.
In data set [2] the target is T1, Neuronal acetylcholine receptor; alpha9/alpha10 (Homo sapiens, UniProt Q9GZZ6+Q9UGM1). Briefly: Antagonist activity at human alpha9alpha10 nAChR expressed in acetylcholine-induced Xenopus laevis oocytes assessed as inhibition of acetylcholine-induced current at -80 mV holding potential incubated for 5 mins by two electrode voltage-clamp assay. It counts as cell-based, Oocyte. (Two-electrode voltage clamp is typically applied to oocytes expressing channels or transporters.)
T1 sequence (Q9UGM1 whole entry): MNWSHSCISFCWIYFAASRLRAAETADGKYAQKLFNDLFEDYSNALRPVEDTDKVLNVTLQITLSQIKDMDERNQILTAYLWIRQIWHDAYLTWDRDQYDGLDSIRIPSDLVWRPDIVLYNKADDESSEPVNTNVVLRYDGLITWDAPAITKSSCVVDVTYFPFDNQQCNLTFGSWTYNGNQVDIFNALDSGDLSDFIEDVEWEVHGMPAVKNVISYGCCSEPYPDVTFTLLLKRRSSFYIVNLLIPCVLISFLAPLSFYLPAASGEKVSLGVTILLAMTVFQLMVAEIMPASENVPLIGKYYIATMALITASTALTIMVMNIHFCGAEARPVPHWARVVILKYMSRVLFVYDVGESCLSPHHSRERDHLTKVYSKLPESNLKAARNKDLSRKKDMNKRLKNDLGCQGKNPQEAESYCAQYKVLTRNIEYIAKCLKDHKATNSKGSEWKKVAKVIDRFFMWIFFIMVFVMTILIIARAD
T1 sequence (Q9GZZ6 whole entry): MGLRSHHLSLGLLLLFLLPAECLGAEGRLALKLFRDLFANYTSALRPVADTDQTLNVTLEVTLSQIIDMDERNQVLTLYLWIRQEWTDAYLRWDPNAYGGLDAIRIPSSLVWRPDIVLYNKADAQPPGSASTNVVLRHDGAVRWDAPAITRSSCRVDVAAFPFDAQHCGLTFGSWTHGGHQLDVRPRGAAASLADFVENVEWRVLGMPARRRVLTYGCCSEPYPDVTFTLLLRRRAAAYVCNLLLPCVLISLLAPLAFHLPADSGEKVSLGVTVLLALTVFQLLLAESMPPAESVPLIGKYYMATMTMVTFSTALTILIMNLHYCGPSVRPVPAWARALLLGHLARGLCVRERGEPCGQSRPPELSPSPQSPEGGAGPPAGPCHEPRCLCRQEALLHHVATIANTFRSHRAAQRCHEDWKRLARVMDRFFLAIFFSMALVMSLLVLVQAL

Data set [3] in a line: Stability in human serum assessed as parent compound remaining incubated at 24 hrs by RP-HPLC analysis. The format is ADME, cell-free. The following applies: for remaining at 24 h: human serum, read-out: Stability.
Data set [4] addresses T1, Neuronal acetylcholine receptor; alpha9/alpha10. The experiment in a line: Inhibition of human alpha9alpha10 nAChR assessed as reduction in acetylcholine-induced current incubated for 5 mins by two electrode voltage-clamp assay. It counts as protein-complex assay.
The test system of data set [5] is Rattus norvegicus. Briefly: Analgesic activity in Oxaliplatin-induced cold allodynia SPF male Sprague-Dawley rat assessed as increase in latency at 200 microg/kg, iv measured at 72 hrs by cold plate test. The format is functional, organism-based. Particulars: dose 200.0 µg/kg.
Data set [6] concerns the target Neuronal acetylcholine receptor; alpha3/beta2 (Homo sapiens, UniProt P17787+P32297). Briefly: Inhibition of human alpha3beta2 nAChR assessed as reduction in acetylcholine-induced current incubated for 5 mins by two electrode voltage-clamp assay. The format is protein-complex assay.
The subject of data set [7] is Rattus norvegicus. The experiment in a line: Analgesic activity in Oxaliplatin-induced cold allodynia SPF male Sprague-Dawley rat assessed as reduction in pain-relieving effect at 500 microg/kg, iv measured at 1 to 24 hrs. The format is functional, organism-based. The following applies: dose 500.0 µg/kg, time 1-24 hrs.
A short description of data set [8]: Stability in human serum assessed as half life incubated upto 48 hrs by RP-HPLC analysis. The format is ADME, cell-free.
In data set [9] the target is Neuronal acetylcholine receptor; alpha9/alpha10 (Homo sapiens) (UniProt Q9UGM1+Q9GZZ6). Briefly: Antagonist activity at human alpha9alpha10 nAChR expressed in acetylcholine-induced Xenopus laevis oocytes assessed as inhibition of acetylcholine-induced current at 10 nM at -80 mV holding potential incubated for 5 mins by two electrode voltage-clamp assay relative to control. The format is cell-based. Particulars: Oocyte, filed as antagonist.

Data set [10] is described as follows: Stability in human serum assessed as parent compound remaining incubated at 48 hrs by RP-HPLC analysis. It counts as ADME, cell-free. Particulars: read-out: Stability.
A short description of data set [11]: Antagonist activity at rat alpha9alpha10 nAChR expressed in acetylcholine-induced Xenopus laevis oocytes assessed as inhibition of acetylcholine-induced current at -80 mV holding potential incubated for 5 mins by two electrode voltage-clamp assay. The format is cell-based. Particulars: Oocyte.

SMILES strings stand for the structures. Calls of active or inactive are those of the source. Residues, ends and D or L forms follow the SMILES beside them. Where only a bound is given, the exact number is not on record here.

Chain of Neuronal acetylcholine receptor subunit alpha-7 (P36544 whole entry): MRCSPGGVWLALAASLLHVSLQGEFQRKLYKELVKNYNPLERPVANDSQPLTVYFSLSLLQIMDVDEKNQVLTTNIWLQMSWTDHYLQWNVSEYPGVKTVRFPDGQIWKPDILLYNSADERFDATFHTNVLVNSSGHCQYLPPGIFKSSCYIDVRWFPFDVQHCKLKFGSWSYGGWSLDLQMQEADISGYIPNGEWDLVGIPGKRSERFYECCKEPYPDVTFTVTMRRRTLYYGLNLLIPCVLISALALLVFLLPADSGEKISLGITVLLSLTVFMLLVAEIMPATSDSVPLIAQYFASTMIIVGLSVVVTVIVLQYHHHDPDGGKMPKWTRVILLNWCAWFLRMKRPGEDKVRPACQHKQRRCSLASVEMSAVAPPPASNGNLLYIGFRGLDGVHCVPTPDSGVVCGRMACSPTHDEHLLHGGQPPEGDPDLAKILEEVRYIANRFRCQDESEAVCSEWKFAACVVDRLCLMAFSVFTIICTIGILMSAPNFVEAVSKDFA
Chain of Neuronal acetylcholine receptor; alpha3/beta2 (P17787 whole entry): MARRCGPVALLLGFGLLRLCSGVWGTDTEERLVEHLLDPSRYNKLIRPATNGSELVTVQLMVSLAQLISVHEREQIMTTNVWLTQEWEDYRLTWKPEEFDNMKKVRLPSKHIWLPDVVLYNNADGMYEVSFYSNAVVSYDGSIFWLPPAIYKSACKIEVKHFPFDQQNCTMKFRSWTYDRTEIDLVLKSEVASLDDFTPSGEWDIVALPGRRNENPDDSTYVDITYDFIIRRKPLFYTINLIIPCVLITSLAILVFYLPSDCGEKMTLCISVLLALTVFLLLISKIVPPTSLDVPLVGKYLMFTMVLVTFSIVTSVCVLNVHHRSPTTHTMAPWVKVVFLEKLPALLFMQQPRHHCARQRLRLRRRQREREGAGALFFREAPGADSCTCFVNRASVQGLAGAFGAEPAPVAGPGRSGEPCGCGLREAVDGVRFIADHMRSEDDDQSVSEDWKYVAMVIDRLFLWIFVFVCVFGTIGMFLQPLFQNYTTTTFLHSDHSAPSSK
Chain of Neuronal acetylcholine receptor; alpha3/beta2 (P32297 whole entry): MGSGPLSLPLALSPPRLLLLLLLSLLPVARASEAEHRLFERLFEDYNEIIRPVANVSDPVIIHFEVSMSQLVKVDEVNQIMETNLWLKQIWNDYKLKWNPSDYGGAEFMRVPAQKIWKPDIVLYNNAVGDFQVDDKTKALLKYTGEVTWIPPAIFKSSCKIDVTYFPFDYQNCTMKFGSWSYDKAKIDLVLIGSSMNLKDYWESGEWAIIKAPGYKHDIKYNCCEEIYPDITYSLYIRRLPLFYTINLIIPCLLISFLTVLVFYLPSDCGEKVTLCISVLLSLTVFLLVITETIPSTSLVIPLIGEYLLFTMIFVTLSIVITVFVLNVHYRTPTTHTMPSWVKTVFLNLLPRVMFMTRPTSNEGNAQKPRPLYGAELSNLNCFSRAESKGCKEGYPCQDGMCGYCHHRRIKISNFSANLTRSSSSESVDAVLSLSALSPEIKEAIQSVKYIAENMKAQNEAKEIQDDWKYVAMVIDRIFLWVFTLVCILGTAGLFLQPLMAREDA

`CC[C@H](C)[C@H](NC(=O)[C@H](CC(=O)O)NC(=O)[C@@H]1CCCN1C(=O)[C@H](CC(N)=O)NC(=O)[C@H](CC(N)=O)NC(=O)[C@@H](NC(=O)[C@H](CO)NC(=O)[C@H](CS)NC(=O)[C@H](C)NC(=O)[C@@H]1CCCN1C(=O)[C@H](Cc1cnc[nH]1)NC(=O)[C@H](CN)NC(=O)[C@H](CS)NC(=O)[C@H](CS)NC(=O)CN)C(C)C)C(=O)N[C@@H](CS)C(N)=O` (HELM PEPTIDE1{G.C.C.[NC[C@H](N[*:1])C(=O)[*:2]].H.P.A.C.S.V.N.N.P.D.I.C.[am]}$$$$V2.0): the 50% inhibitory concentration (IC50) turned out to be 206 nM in data set [1], 4 nM in data set [2], 4 nM in [4] and 20.6 nM in data set [6]. Moreover, in data set [3], the remaining at 24 h was 58.6%. For the same molecule, the Stability in data set [3] (serum, 24 h) stood at 57.3%. The outcome with Rattus norvegicus [5] and in the data set with Rattus norvegicus [7] was Active. In addition, in [8], the half-life was 26.2 h. The inhibition in data set [9] was found to be 80%. The remaining at 48 h in data set [10] is under 30%.

In the case of `CC[C@H](C)[C@@H]1NC(=O)[C@H](CC(=O)O)NC(=O)[C@@H]2CCCN2C(=O)[C@H](CC(N)=O)NC(=O)[C@H](CC(N)=O)NC(=O)[C@H](C(C)C)NC(=O)[C@H](CO)NC(=O)[C@@H]2CSSC[C@H](NC(=O)CN)C(=O)N[C@H](C(=O)N[C@@H](CN)C(=O)N[C@@H](Cc3cnc[nH]3)C(=O)N3CCC[C@H]3C(=O)N[C@@H](C)C(=O)N2)C(C)(C)SSC[C@@H](C(N)=O)NC1=O` (HELM PEPTIDE1{G.C.[Pen].[NC[C@H](N[*:1])C(=O)[*:2]].H.P.A.C.S.V.N.N.P.D.I.C.[am]}$PEPTIDE1,PEPTIDE1,2:R3-8:R3|PEPTIDE1,PEPTIDE1,3:R3-16:R3$$$V2.0), the concentration for half-maximal inhibition (IC50) in [2] came out at 9.9 nM; in [11] it was 2.7 nM. For the same molecule, the remaining at 24 h in data set [3] was 80%. Further, the inhibition in data set [9] stood at 50%. Further, in [10], the remaining at 48 h stood at 60%.

Broadly, the IC50 is the point on the concentration scale where inhibition reaches its midpoint. As usually defined, the half-life is the time needed for the level to fall by half in the phase considered. In general, inhibition refers to the change of the read-out against control, counted positive when it falls.
